Some test systems named below: MDA-MB-231 breast; EKVX NSCLC; OVCAR-8 ovarian; IGROV1 ovarian; OVCAR-4 ovarian; BT-549 breast; RXF 393 renal; UACC-257 melanoma; UO-31 renal; OVCAR-5 ovarian.
Holding throughout (assay): inhibition of tumour cell growth, NCI panel, 48 h

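Where inhibition never reached the appropriate level, the endpoint shown equals the highest concentration tested. Otherwise, values were interpolated linearly from a five-concentration, 48-hour dose response in 96-well plates. The concentration for 50% growth inhibition is given as GI50. TGI: concentration producing complete growth inhibition.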

As for `CCc1cccc(CC)c1NC(=O)c1ccn2c1CCc1cnc(Nc3ccc(N4CCN(C)CC4)cc3OC)nc1-2`, the GI50 in the assay with MDA-MB-231 breast was 2.11 µM; with EKVX NSCLC it was 3.02 µM; in the assay with OVCAR-8 ovarian, 2.19 µM; with IGROV1 ovarian, 2.52 µM; in the assay on OVCAR-4 ovarian, 3.77 µM; in the assay with BT-549 breast, 2.23 µM. For the same molecule, the GI50 in the assay with RXF 393 renal is 1.58 µM; in the assay with UACC-257 melanoma, 2.05 µM; in the assay on UO-31 renal, 1.55 µM; with OVCAR-5 ovarian, 3.51 µM. Besides, the TGI is 8.29 µM in the assay with MDA-MB-231 breast; 19.6 µM in the assay with EKVX NSCLC; 32.8 µM with OVCAR-8 ovarian; 19.4 µM in the assay with IGROV1 ovarian; 18.1 µM in the assay with OVCAR-4 ovarian; 6.63 µM in the assay on BT-549 breast. Also, the TGI in the assay on RXF 393 renal was 3.08 µM; in the assay on UACC-257 melanoma, 4.8 µM; in the assay on UO-31 renal, 7.74 µM; in the assay on OVCAR-5 ovarian it was 22 µM.
As for `C(=C\c1nc2ccccc2s1)/c1ccc(N2CCOCC2)s1`, the GI50 is greater than 100 µM in the assay on MDA-MB-231 breast; 30.1 µM with EKVX NSCLC; 35.5 µM in the assay on OVCAR-8 ovarian; 58.3 µM in the assay on IGROV1 ovarian; 33.7 µM in the assay on OVCAR-4 ovarian; 34.6 µM with BT-549 breast. Moreover, the GI50 was 31.3 µM with RXF 393 renal, 51.3 µM in the assay with UACC-257 melanoma, 80.5 µM in the assay on UO-31 renal and 66.9 µM in the assay on OVCAR-5 ovarian. Further, the TGI in the assay with MDA-MB-231 breast, with EKVX NSCLC, in the assay on OVCAR-8 ovarian, in the assay with IGROV1 ovarian, with OVCAR-4 ovarian and in the assay on BT-549 breast was greater than 100 µM each time. Moreover, the TGI with RXF 393 renal, with UACC-257 melanoma, in the assay on UO-31 renal and in the assay on OVCAR-5 ovarian was greater than 100 µM throughout.
Consider `CC(C)NCCCCCNc1cc(O)cc2cccnc12`, for which the GI50 in the assay with MDA-MB-231 breast is 4.78 µM; in the assay on EKVX NSCLC it was 22.8 µM; in the assay on OVCAR-8 ovarian, greater than 100 µM; in the assay with IGROV1 ovarian, 4.81 µM; with OVCAR-4 ovarian, 4.14 µM; in the assay on BT-549 breast, greater than 37.7 µM. Also, the GI50 with RXF 393 renal is greater than 100 µM; in the assay with UACC-257 melanoma it was 17.7 µM; in the assay with UO-31 renal, 85.2 µM; in the assay with OVCAR-5 ovarian, greater than 100 µM. For the same molecule, the TGI in the assay with MDA-MB-231 breast, in the assay with EKVX NSCLC, in the assay with OVCAR-8 ovarian, in the assay with IGROV1 ovarian, in the assay with OVCAR-4 ovarian and in the assay on BT-549 breast was greater than 100 µM throughout. The TGI in the assay on RXF 393 renal is greater than 100 µM; in the assay with UACC-257 melanoma, greater than 75.1 µM; in the assay with UO-31 renal it was greater than 100 µM; in the assay on OVCAR-5 ovarian, greater than 100 µM.
In the case of `CS(=O)(=O)c1ccc(-c2[nH]c3ccc(F)cc3c2/C=N/NC(N)=S)cc1`, the GI50 in the assay on MDA-MB-231 breast was 1.65 µM; with EKVX NSCLC, 3.94 µM; in the assay with OVCAR-8 ovarian, 2.76 µM; in the assay with IGROV1 ovarian, 4.95 µM; with OVCAR-4 ovarian it was 13.4 µM; in the assay on BT-549 breast, 1.61 µM. In addition, the GI50 with RXF 393 renal was 1.21 µM; in the assay with UACC-257 melanoma, greater than 100 µM; in the assay with UO-31 renal, 2.84 µM; with OVCAR-5 ovarian it was 3.74 µM. The TGI is greater than 100 µM in the assay on MDA-MB-231 breast; greater than 100 µM in the assay on EKVX NSCLC; greater than 100 µM in the assay with OVCAR-8 ovarian; greater than 100 µM in the assay on IGROV1 ovarian; greater than 100 µM in the assay with OVCAR-4 ovarian; 34.4 µM in the assay with BT-549 breast. For the same molecule, the TGI is 63.1 µM in the assay on RXF 393 renal, greater than 100 µM in the assay on UACC-257 melanoma, greater than 100 µM with UO-31 renal and greater than 100 µM in the assay on OVCAR-5 ovarian.
With `O=c1cc(-c2ccccc2)nc2cc(-c3ccco3)[nH]n12`, the GI50 is 7.84 µM in the assay on MDA-MB-231 breast; 15.6 µM in the assay with EKVX NSCLC; 18 µM with OVCAR-8 ovarian; 7.91 µM in the assay on IGROV1 ovarian; 23 µM in the assay with OVCAR-4 ovarian; 14.8 µM in the assay with BT-549 breast. In addition, the GI50 was 18.9 µM in the assay on RXF 393 renal, 17.3 µM with UACC-257 melanoma, 7.92 µM with UO-31 renal and 42.2 µM in the assay on OVCAR-5 ovarian. Besides, the TGI was greater than 100 µM with MDA-MB-231 breast; 78.3 µM with EKVX NSCLC; greater than 100 µM in the assay on OVCAR-8 ovarian; 60 µM in the assay on IGROV1 ovarian; greater than 100 µM in the assay with OVCAR-4 ovarian; greater than 100 µM in the assay with BT-549 breast. Also, the TGI in the assay on RXF 393 renal was greater than 100 µM; in the assay with UACC-257 melanoma it was greater than 100 µM; in the assay on UO-31 renal, 59.8 µM; with OVCAR-5 ovarian, greater than 100 µM.
With `O=[N+]([O-])c1ccc(NN=C2c3ccccc3Cc3ccccc32)c([N+](=O)[O-])c1`, the TGI in the assay with MDA-MB-231 breast, with EKVX NSCLC, in the assay with OVCAR-8 ovarian, in the assay with IGROV1 ovarian, in the assay on OVCAR-4 ovarian and in the assay with BT-549 breast was greater than 100 µM each time. The TGI in the assay on RXF 393 renal, in the assay with UACC-257 melanoma, in the assay with UO-31 renal and in the assay with OVCAR-5 ovarian was greater than 100 µM throughout.
`O=C(Nc1ccc(Cl)cc1F)c1cc(Cl)ccc1O`: the GI50 with MDA-MB-231 breast was 0.554 µM; in the assay on EKVX NSCLC, 0.891 µM; in the assay with OVCAR-8 ovarian, 0.619 µM; with IGROV1 ovarian it was 0.247 µM; with OVCAR-4 ovarian it was 0.34 µM; in the assay with BT-549 breast, 0.379 µM. In addition, the GI50 in the assay with RXF 393 renal is 0.437 µM; with UACC-257 melanoma it was 0.482 µM; in the assay on UO-31 renal, 0.208 µM; with OVCAR-5 ovarian, 2.74 µM. Besides, the TGI in the assay on MDA-MB-231 breast is 3.46 µM; with EKVX NSCLC it was 8.27 µM; with OVCAR-8 ovarian it was greater than 37.2 µM; in the assay on IGROV1 ovarian, greater than 100 µM; in the assay with OVCAR-4 ovarian, greater than 100 µM; with BT-549 breast, 2.04 µM. In addition, the TGI in the assay with RXF 393 renal was 4.73 µM; in the assay with UACC-257 melanoma it was 6.89 µM; in the assay with UO-31 renal it was 1.92 µM; in the assay on OVCAR-5 ovarian it was greater than 100 µM.
Turning to `Cc1ccc2nc(CC(=O)c3ccc4ccccc4c3)c(=O)[nH]c2c1`, the TGI in the assay on MDA-MB-231 breast, with EKVX NSCLC, with OVCAR-8 ovarian, in the assay on IGROV1 ovarian, with OVCAR-4 ovarian and in the assay on BT-549 breast was greater than 100 µM in each case. The TGI with RXF 393 renal, in the assay with UACC-257 melanoma, in the assay with UO-31 renal and in the assay on OVCAR-5 ovarian was greater than 100 µM in each case.

The values are drawn from PubChem BioAssay (NCI).
